Data as given in patent US9833497B2, “Human originated EGF domain proteins and use of the same” (CHENGDU SOURCEBIO LIMITED-LIABILITY COMPANY, priority 2013, dated 2017).

Experiments:
Assay type in all cases: cell-based
E. coli DH5α = experiment: Antibacterial activity: MIC and growth curve against E. coli DH5α in 96-well plate; conditions: minimal inhibitory concentration against E. coli DH5α; 96-well plate, 5×10^5 CFU/mL, 37° C., judged after 8 h
In short: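 Log-phase DH5α (OD600 about 0.5, 37° C, 185 rpm in LB) was pelleted, resuspended in fresh LB and seeded at 5×10^5 CFU/mL with recombinant protein at 50, 25 and 12.5 μg/mL (two-fold series), in triplicate. Plates were shaken at 175 rpm, 37° C, and OD600 was read every 30 min. MIC was the lowest concentration with no growth.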

E. coli BL21 = experiment: MIC against Gram-negative bacteria: E. coli BL21; conditions: E. coli BL21; 96-well plate, 5×10^5 CFU/mL, 37° C., 10 h
In short: (§1)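 Growth inhibition by human EGF domain proteins was scored in LB liquid culture seeded at 5×10^5 CFU/mL. Protein was applied as a two-fold dilution series in triplicate, with shaking incubation at 37° C; MIC is the lowest concentration giving no growth.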

Pseudomonas aeruginosa = experiment: MIC against Gram-negative bacteria: Pseudomonas aeruginosa; conditions: Pseudomonas aeruginosa; 96-well plate, 5×10^5 CFU/mL, 37° C., 10 h
In short: as §1

Klebsiella pneumonia = experiment: MIC against Gram-negative bacteria: Klebsiella pneumonia; conditions: Klebsiella pneumonia; 96-well plate, 5×10^5 CFU/mL, 37° C., 10 h
In short: as §1

Enterobacter cloacae = experiment: MIC against Gram-negative bacteria: Enterobacter cloacae; conditions: Enterobacter cloacae; 96-well plate, 5×10^5 CFU/mL, 37° C., 10 h
In short: as §1

Aeromonas hydrophila = experiment: MIC against Gram-negative bacteria: Aeromonas hydrophila; conditions: Aeromonas hydrophila; 96-well plate, 5×10^5 CFU/mL, 37° C., 10 h
In short: as §1

Citrobacter diversus = experiment: MIC against Gram-negative bacteria: Citrobacter diversus; conditions: Citrobacter diversus; 96-well plate, 5×10^5 CFU/mL, 37° C., 10 h
In short: as §1

Moraxella catarrhalis = experiment: MIC against Gram-negative bacteria: Moraxella catarrhalis; conditions: Moraxella catarrhalis; 96-well plate, 5×10^5 CFU/mL, 37° C., 10 h
In short: as §1

Proteus mirabilis = experiment: MIC against Gram-negative bacteria: Proteus mirabilis; conditions: Proteus mirabilis; 96-well plate, 5×10^5 CFU/mL, 37° C., 10 h
In short: as §1

Proteus vulgaris = experiment: MIC against Gram-negative bacteria: Proteus vulgaris; conditions: Proteus vulgaris; 96-well plate, 5×10^5 CFU/mL, 37° C., 10 h
In short: as §1

Serratia marcescens = experiment: MIC against Gram-negative bacteria: Serratia marcescens; conditions: Serratia marcescens; 96-well plate, 5×10^5 CFU/mL, 37° C., 10 h
In short: as §1

Substance | MIC (E. coli DH5α) | MIC against E. coli BL21 (E. coli BL21) | MIC against P. aeruginosa (Pseudomonas aeruginosa) | MIC against K. pneumonia (Klebsiella pneumonia) | MIC against E. cloacae (Enterobacter cloacae) | MIC against A. hydrophila (Aeromonas hydrophila) | MIC against C. diversus (Citrobacter diversus) | MIC against M. catarrhalis (Moraxella catarrhalis) | MIC against P. mirabilis (Proteus mirabilis) | MIC against P. vulgaris (Proteus vulgaris) | MIC against S. marcescens (Serratia marcescens)
PRT1314 (ARNPCTDGHRGGCSEHANCLSTGLNTRRCECHAGYVGDGLQCL; listed as Homo sapiens) | 12.5 µg/mL | 50 µg/mL | 12.5 µg/mL | 50 µg/mL | 12.5 µg/mL | 50 µg/mL | 12.5 µg/mL | 12.5 µg/mL | 12.5 µg/mL | 12.5 µg/mL | 12.5 µg/mL
PRT1315 (FGPDCQSVCSCVHGVCNHGPRGDGSCLCFAGYTGPHCD; listed as Homo sapiens) | 25 µg/mL | 12.5 µg/mL | 12.5 µg/mL | 100 µg/mL | 25 µg/mL | 12.5 µg/mL | 12.5 µg/mL | 50 µg/mL | 12.5 µg/mL | 50 µg/mL | 12.5 µg/mL
PRT1316 (ELPVCQELRCPQNTQCSAEAPSCRCLPGYTQQGSE; listed as Homo sapiens) | 50 µg/mL | 12.5 µg/mL | 50 µg/mL | 25 µg/mL | 12.5 µg/mL | 50 µg/mL | 12.5 µg/mL | 50 µg/mL | 12.5 µg/mL | 50 µg/mL | 12.5 µg/mL
PRT1317 (APNPCWPSPCSLLAQCSVSPKGQAQCHCPENYHGDGMVCL; listed as Homo sapiens) | 50 µg/mL | 12.5 µg/mL | 50 µg/mL | 25 µg/mL | 12.5 µg/mL | 25 µg/mL | 50 µg/mL | 25 µg/mL | 12.5 µg/mL | 50 µg/mL | 12.5 µg/mL
PRT1318 (DCTQCPGGFSNPCYGKGNCSDGIQGNGACLCFPDYKGIACH; listed as Homo sapiens) | 25 µg/mL | 12.5 µg/mL | 25 µg/mL | 50 µg/mL | 25 µg/mL | 12.5 µg/mL | 50 µg/mL | 12.5 µg/mL | 25 µg/mL | 50 µg/mL | 25 µg/mL
PRT1319 (SMGDCGPTGLAQHCHLHARCVSQEGVARCRCLDGFEGDGFS; listed as Homo sapiens) | 12.5 µg/mL | 50 µg/mL | 12.5 µg/mL | 25 µg/mL | 25 µg/mL | 25 µg/mL | 12.5 µg/mL | 25 µg/mL | 25 µg/mL | 12.5 µg/mL | 12.5 µg/mL
PRT1320 (PSNPCSHPDRGGCSENAECVPGSLGTHHCTCHKGWSGDGRVCV; listed as Homo sapiens) | 25 µg/mL | 12.5 µg/mL | 25 µg/mL | 12.5 µg/mL | 25 µg/mL | 12.5 µg/mL | 12.5 µg/mL | 12.5 µg/mL | 12.5 µg/mL | 50 µg/mL | 12.5 µg/mL
PRT1321 (AIDECELDMRGGCHTDALCSYVGPGQSRCTCKLGFAGDGYQCS; listed as Homo sapiens) | 50 µg/mL | 12.5 µg/mL | 50 µg/mL | 25 µg/mL | 12.5 µg/mL | 50 µg/mL | 12.5 µg/mL | 50 µg/mL | 12.5 µg/mL | 100 µg/mL | 12.5 µg/mL
PRT1322 (PIDPCRAGNGGCHGLATCRAVGGGQRVCTCPPGFGGDGFS; listed as Homo sapiens) | 12.5 µg/mL | 25 µg/mL | 12.5 µg/mL | 25 µg/mL | 50 µg/mL | 12.5 µg/mL | 50 µg/mL | 12.5 µg/mL | 12.5 µg/mL | 25 µg/mL | 12.5 µg/mL
PRT1323 (DCIECPGGAGSPCNGRGSCAEGMEGNGTCSCQEGFGGTACE; listed as Homo sapiens) | 12.5 µg/mL | 25 µg/mL | 12.5 µg/mL | 25 µg/mL | 12.5 µg/mL | 12.5 µg/mL | 50 µg/mL | 12.5 µg/mL | 25 µg/mL | 50 µg/mL | 12.5 µg/mL
PRT1324 (PITSCLEQTGKCHPLASCQSTSSGVWSCVCQEGYEGDGFL; listed as Homo sapiens) | 12.5 µg/mL | 25 µg/mL | 50 µg/mL | 25 µg/mL | 12.5 µg/mL | 50 µg/mL | 25 µg/mL | 12.5 µg/mL | 25 µg/mL | 12.5 µg/mL | 25 µg/mL
PRT1325 (TEDNCNGTCHTSANCLTNSDGTASCKCAAGFQGNGTICT; listed as Homo sapiens) | 12.5 µg/mL | 12.5 µg/mL | 25 µg/mL | 12.5 µg/mL | 25 µg/mL | 25 µg/mL | 12.5 µg/mL | 12.5 µg/mL | 25 µg/mL | 12.5 µg/mL | 25 µg/mL
PRT1326 (AINACEISNGGCSAKADCKRTTPGRRVCTCKAGYTGDGIVCL; listed as Homo sapiens) | 50 µg/mL | 12.5 µg/mL | 50 µg/mL | 12.5 µg/mL | 50 µg/mL | 12.5 µg/mL | 50 µg/mL | 25 µg/mL | 12.5 µg/mL | 25 µg/mL | 50 µg/mL
PRT1327 (EINPCLENHGGCDKNAECTQTGPNQAACNCLPAYTGDGKVCT; listed as Homo sapiens) | 25 µg/mL | 12.5 µg/mL | 50 µg/mL | 12.5 µg/mL | 50 µg/mL | 12.5 µg/mL | 12.5 µg/mL | 12.5 µg/mL | 12.5 µg/mL | 12.5 µg/mL | 25 µg/mL
PRT1328 (LINVCLTKNGGCSEFAICNHTGQVERTCTCKPNYIGDGFT; listed as Homo sapiens) | 12.5 µg/mL | 12.5 µg/mL | 50 µg/mL | 12.5 µg/mL | 50 µg/mL | 25 µg/mL | 12.5 µg/mL | 25 µg/mL | 50 µg/mL | 12.5 µg/mL | 50 µg/mL
